Data published in patent US4501733A, “Polypeptides, a process for their preparation, their use, and a _process for the purification of polypeptides” (Ferring Arzneimittel GmbH, priority 1982, dated 1985).
Square brackets hold non-standard residues; d marks the D form. Peptide text beside a SMILES is read from it. * marks the point of attachment. Propionyl = CCC(=O)*

What was measured:
[1] = test system: ileum from guinea pigs; assay: Inhibition of SP- or Nle-SP-induced contraction of isolated guinea pig ileum (organ bath, isotonic measurement); details: for relative antagonistic potency (comparison of the antagonists): agonist 10^-8 M; for relative antagonistic potency (comparison of the antagonists) / Percentage inhibiting action: antagonist 10^-5 M; for Percentage inhibiting action: agonist SP or Nle-SP 10^-8 M, guinea pig ileum contraction; for substance P-antagonizing action: antagonist used in a concentration of 10^-5 M, agonist SP or Nle-SP
Description: The ileum from guinea pigs was cut out after the animals had been sacrificed, was substantially freed from mesenteria by pulling at the caudal end and was freed from digestion products with Tyrode's solution. About 25 cm were discarded from the caudal end, and several sections of intestine 4 cm long were then removed and stored in Tyrode's solution. The Tyrode's solution was gassed with carbogen (95% of O2 and 5% of CO2). The Tyrode's solution contained the following substances per liter: 8 g of NaCl; […]; 1.3 g of CaCl2.2H2 O; 2.1 g of MgCl2.6H2 O; […]; 0.58 g of NaH2 PO4.1H2 O; and 11 g of D(+)-glucose.
The Tyrode's solution was thermostatically controlled at 38° C. in an organ bath. Each preparation retained its complete contractility for 4 to 7 hours. 4 cm sections of intestine were tied on both sides and suspended in the organ bath. The contractions of the preparation were recorded under isotonic measurement conditions via a lever on a Kymograph drum. The writing was done by a felt-tip pen arranged as a lateral pen. The load arm was 225 mm and the power arm 20 mm long. The pre-load was about 0.3 g and the paper speed was 5 mm/minute. The organ bath contained 10 ml.
As a rule, the test substances were added in volumes of 2 to 100 μl, and were distributed instantaneously in the organ bath by the gassing. All the test substances added were dissolved in Tyrode's solution or diluted with Tyrode's solution from a stock solution.
Test substances: substance P (Serva) or norleucine-SP (Ferring, Kiel) were used as agonists, in doses of between 10^-9 and 10^-7 M. The following compounds were tested as potential antagonists:
In the standard test, SP or Nle-SP was applied in a concentration of between 10^-9 and 10^-7 M, and was washed out after about 2 minutes. After a latency period of a further 3 minutes, the potential antagonist was applied in a concentration of 3×10^-6, 10^-5 or 3.3×10^-5 M, directly followed by a further dose of SP (Nle-SP). After renewed washing out and a waiting time of 3 minutes, SP (Nle-SP) was again applied in the same dose, in order to investigate whether the original contraction strength is reached.
The reduction in the relative contraction of the ileum preparations as a result of using SP analogs was regarded as a measure of the relative activity as antagonists.

[2] = test system: ileum in guinea pigs; details: Folkers et al. 1981; Rosell et al. 1981; cited from earlier work
[3] = test system: SP-induced salivation; details: Folkers et al. 1981; Rosell et al. 1981; cited from earlier work
[4] = test system: vasodilation; details: Folkers et al. 1981; Rosell et al. 1981; cited from earlier work

With `CSCC[C@H](NC(=O)[C@H](CC(C)C)NC(=O)[C@@H](Cc1c[nH]c2ccccc12)NC(=O)[C@H](Cc1ccccc1)NC(=O)[C@@H](Cc1c[nH]c2ccccc12)NC(=O)[C@H](CCC(N)=O)NC(=O)[C@@H]1CCCN1)C(N)=O` [compound 3, H-Pro-Gln-D-Trp-Phe-D-Trp-Leu-Met-NH2] (H-PQ[dW]F[dW]LM-NH2) the “relative antagonistic potency (comparison of the antagonists)” value (“relative antagonistic potency” below) [1] was “most powerful action”, the Percentage inhibiting action [1] was 69.5 ± 0.5% and the “substance P-antagonizing action” value [1] was “substance P-antagonizing action”.
In the case of D-Pro^2, D-Phe^7 and D-Trp-^9 -SP, the “inhibition of the contraction of the ileum in guinea pigs caused by SP” value [2] is given as “inhibit”, the “inhibition of SP-induced salivation” value [3] is given as “inhibit” and the “inhibition of vasodilation caused by antidromic nerve stimulation and SP-induced vasodilation” value [4] is given as “inhibit”.
For `CCC(=O)N[C@@H](CCC(N)=O)C(=O)N[C@H](Cc1c[nH]c2ccccc12)C(=O)N[C@@H](Cc1ccccc1)C(=O)N[C@H](Cc1c[nH]c2ccccc12)C(=O)N[C@@H](CC(C)C)C(=O)N[C@@H](CCSC)C(N)=O` [compound 4, Propionyl-Gln-D-Trp-Phe-D-Trp-Leu-Met-NH2] (Propionyl-Q[dW]F[dW]LM-NH2), the “relative antagonistic potency” value [1] was “lower but significant inhibiting action”, the Percentage inhibiting action [1] was 29.3 ± 9.5% and the “substance P-antagonizing action” value [1] was “substance P-antagonizing action”.
In the case of `CSCC[C@H](NC(=O)[C@H](CC(C)C)NC(=O)[C@@H](Cc1c[nH]c2ccccc12)NC(=O)[C@H](Cc1ccccc1)NC(=O)[C@@H](Cc1c[nH]c2ccccc12)NC(=O)[C@H](CCC(N)=O)NC(=O)[C@@H](N)CCCNC(=N)N)C(N)=O` [compound 2, H-Arg-Gln-D-Trp-Phe-D-Trp-Leu-Met-NH2] (H-RQ[dW]F[dW]LM-NH2), the “relative antagonistic potency” value [1] is reported as “most powerful action”, the Percentage inhibiting action [1] is reported as 68.1 ± 8% and the “substance P-antagonizing action” value [1] is reported as “substance P-antagonizing action”.
